Reference: ChEMBL document CHEMBL3352733, “Liver x receptor agonists for the treatment of coronary heart disease and other disorders” (ACS Med Chem Lett, 2014)

Molecular target: T1, Oxysterols receptor LXR-beta (Homo sapiens) (UniProt P55055)
T1 sequence (whole entry): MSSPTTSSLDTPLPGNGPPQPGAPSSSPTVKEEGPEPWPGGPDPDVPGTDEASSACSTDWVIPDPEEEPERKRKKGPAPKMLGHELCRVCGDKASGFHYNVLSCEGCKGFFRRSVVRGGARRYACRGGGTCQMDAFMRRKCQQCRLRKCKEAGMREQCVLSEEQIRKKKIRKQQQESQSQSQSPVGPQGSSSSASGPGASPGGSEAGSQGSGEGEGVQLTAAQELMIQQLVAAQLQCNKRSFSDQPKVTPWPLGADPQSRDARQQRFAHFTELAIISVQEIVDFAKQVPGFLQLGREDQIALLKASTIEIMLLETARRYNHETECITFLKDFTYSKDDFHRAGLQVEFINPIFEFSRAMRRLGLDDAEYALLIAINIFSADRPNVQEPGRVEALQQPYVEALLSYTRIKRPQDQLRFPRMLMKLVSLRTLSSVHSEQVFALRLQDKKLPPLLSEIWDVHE
Assay: Agonist activity at human LXRbeta expressed in CV1 cells after 20 hrs by luciferase reporter co-transfection assay relative to control
Format: cell-based
Details: CV-1

Efficacy [%] | SMILES
116 | Cc1nc(C(F)(F)F)c(Cl)n1-c1ccc(-c2cc(F)c(CO)c(S(C)(=O)=O)c2)cc1-n1nncc1-c1ccc(OC(F)(F)F)cc1
75 | Cc1nc(C(F)(F)F)cn1-c1ccc(-c2cc(F)c(CO)c(S(C)(=O)=O)c2)cc1-c1nc(C(C)C)oc1-c1ccc(OC(F)(F)F)cc1
85 | Cc1nc(C(F)(F)F)cn1-c1c(F)cc(-c2cccc(S(C)(=O)=O)c2)cc1-n1nncc1-c1ccc(Cl)cc1
100 | Cc1nc(C(F)(F)F)cn1-c1ccc(-c2cccc(S(C)(=O)=O)c2)cc1-n1nncc1Cc1cccc(Cl)c1
